Data on 88 molecules can be found in a melting point compilation (Tetko et al.; mined from patent text by program, amines drawn as free bases though some values may be those of a salt).

Each structure is given as a SMILES string.

For `CCOC(=O)c1cc(S(=O)(=O)c2ccccc2)c2ccccn2c1=O`, the melting point (usually the temperature, or range, at which the solid turns liquid) was 182 °C.

For `CCCc1cc(C(=O)OCC)ccc1O`, the melting point was 78 to 79 °C.

For `CSc1cc2nc[nH]c(=O)c2s1`, the melting point lay in the range of 216 to 218 °C.

On to `Cc1ccn2c(-c3ccnc(-c4ccc(OCC(N)=O)cc4)c3)c(-c3cccc(C)n3)nc2c1`, for which the melting point came out at 213 °C.

Consider `O=C1CCCc2nc(N3CCN(Cc4ccccc4)CC3)ncc2N1`, for which the melting point was 211 °C.

The molecule `CC(=O)Nc1c(OC(C)=O)cc(C)c(C)c1[N+](=O)[O-]` registered a melting point of 209 to 211 °C.

`CC(C)c1ccc2c(c1)C(=O)N(C)C(c1ccc(C(C)(C)C)cc1)C2` (stereo not drawn) registered a melting point of 103 to 106 °C.

Molecule `COC(=O)CCc1ccc(Oc2ccc(-c3ccc(C(=N)N)cc3)nn2)cc1` showed a melting point of 178 to 181 °C.

In the case of `CSC1C(=O)Nc2cc(-c3ccccc3)ccc21` (stereo not drawn), the melting point was in the range of 177 to 178 °C.

On to `COC(=O)c1ccc(Cn2nc(O)c3ccc(NC(=O)CC4CCCC4)cc32)c(OC)c1`, for which the melting point was in the range of 242 to 245 °C.

The molecule `OC(c1ccccc1)(C1CC1)C(c1cccc(Cl)c1)n1ccnc1` (stereo not drawn) came in with a melting point of 140 °C.

The molecule `CCC(C)(C)NC(=O)c1cnc2cccc(C)n2c1=O` registered a melting point of 87 to 89 °C.

The molecule `N#Cc1ccc(OCCCOc2cccc(-c3cc4ccc(C#N)cc4o3)c2)cc1` gave a melting point of 128 to 129 °C.

Turning to `OC(Cn1cncn1)c1ccc(Cl)cc1Cl` (stereo not drawn), the melting point is 87 °C.

`O=C(Nc1ccc(F)cc1)c1ccc([N+](=O)[O-])cc1` registered a melting point of 143 to 146 °C.

`CN(C)Cc1ccc(SC2CCNCC2)cc1` came in with a melting point of 52 °C.

`COc1ccc2cc(C(C)C(=O)NCCN(O)C(N)=O)ccc2c1` (stereo not drawn) came in with a melting point of 162 °C.

`Cc1cc(Cl)ccc1NC(=S)N(C)OCC(=O)O` showed a melting point of 110 to 113 °C.

`O=C(O)c1ccc(SC(Cn2ccnc2)c2cccnc2)cc1` (stereo not drawn) gave a melting point of 80 to 83 °C.

For the molecule `CC(C)n1c(=O)nc(-c2ccc3c(c2)CCC3)c2cc3c(cc21)OCO3`, the melting point fell in the range of 73 to 75 °C.

With `Cc1ccccc1C(Oc1cc(OCc2ccsc2)ccc1C#N)C(=O)O` (racemic), the melting point was 146 to 148 °C.

Take `CCOCc1nc2c(N)nc3cc(-c4ccc(F)cc4)cnc3c2n1CC1(O)CCCC1`: the melting point came out at 212 °C.

`CCOC(=O)c1cn(-c2cccnc2)nc1N` showed a melting point of 140 to 141 °C.

In turn, `Cc1cc(Cl)cc(C(=O)N(Cc2ccccc2)C2(C)CNC2)c1NC(=O)c1cc(C(F)(F)F)nn1-c1ncccc1Cl` had a melting point of 127 to 130 °C.

Molecule `N#Cc1ccc(N2C(=O)NC(CO)(CO)C2=O)cc1C(F)(F)F` registered a melting point of 207 to 208 °C.

`CC(C)(O)Cn1c(CONS(C)(=O)=O)nc2c(N)nc3ccccc3c21` showed a melting point of 232 to 234 °C.

With `COc1ccc(N2CCN(c3c(C)c(C)c4c(c3C)C(c3cccc(C)c3)C(C)(C)O4)CC2)cc1` (stereo not drawn), the melting point was in the range of 159 to 161 °C.

The molecule `CN1C(=O)CC[C@]2(C)c3ccc(C=Cc4ccc5ccccc5n4)cc3CC[C@@H]12` returned a melting point of 233 to 236 °C.

In turn, `O=C(O)c1cc(NC(=O)C(F)(F)F)c(C(=O)c2ccccc2)c(OCc2ccccc2)c1` gave a melting point of 213 °C.

In turn, `C=CCOC(=O)CCC(C)(c1ccc(O)cc1)c1ccc(O)cc1` came in with a melting point of 83 to 85 °C.

On to `CN(C)C1(c2ccc(F)cc2)CCC(N2CCC(c3c[nH]c4ccccc34)C2)CC1` (stereo not drawn), for which the melting point was 248 to 250 °C.

Take `COC(=O)C[C@H](O)C[C@H](O)C=Cc1c(-c2ccc(F)cc2)c(-c2ccccc2)c(C(=O)NCc2ccc(F)cc2)n1C(C)C`: the melting point was 68 to 69 °C.

In turn, `N#Cc1ccc(-c2cccc(OC3SCC(O)C(O)C3O)c2)cn1` (stereo not drawn) showed a melting point of 179 °C.

Molecule `Cc1nc2c(N)nc3ccccc3c2n1CCCCNC(=O)Nc1ccccc1` gave a melting point of 172 °C.

The molecule `COCCOCc1c(CN(C)CC(O)c2cccc(OC)c2)sc2c(=O)c(C(=O)NCc3ccc(Cl)cc3)cn(C)c12` (stereo not drawn) yielded a melting point of 135 to 138 °C.

As to `COc1ccc(COc2cccnc2NC(=N)Nc2ccc(Cl)cc2)c(F)c1`, the melting point fell in the range of 158 to 161 °C.

Take `CC(CN1C(=O)C2(COc3cc4c(cc32)CCO4)c2ccccc21)OCc1ccccn1` (stereo not drawn): the melting point was in the range of 46 to 54 °C.

`O=CNNc1ccc(NC(=S)Nc2ccc(NNC=O)cc2)cc1`: the melting point lay within 212 to 214 °C.

`Cc1cc2c(c(C3=NNC(=O)CC3)c1)OCC(=O)N2` yielded a melting point of 266 to 270 °C.

Turning to `O=c1ncn(Cc2ccc(Cl)cc2)c2cc(-c3ccc(OCc4cccnc4)cc3)sc12`, the melting point is 255 to 257 °C.

Molecule `CN(Cc1ccccc1)Cc1cnc(NC(=O)C(Cc2ccc(F)cc2)c2ccc(S(C)(=O)=O)cc2)cn1` (stereo not drawn) showed a melting point of 99 to 100 °C.

The molecule `CCCc1nc2c(N)nc3cc(Cl)ccc3c2s1` showed a melting point of 159 to 160 °C.

On to `COC(=O)C1=C(O)c2ccccc2S(=O)(=O)N1`, for which the melting point is 173 to 175 °C.

As to `Cn1c(CCNC(=O)C(F)(F)F)cc2ccccc21`, the melting point is 124 to 126 °C.

Take `CC(=O)C(=[N+]=[N-])C(=O)CCCCCCCCCc1ccc(S(=O)(=O)Cl)cc1`: the melting point was in the range of 48.5 to 50 °C.

Turning to `N#Cc1ccccc1NC(=O)C(=O)N1CCC(Cc2ccc(F)cc2)CC1`, the melting point fell in the range of 101 to 103 °C.

The molecule `CN1CCN(c2ccc(C3CCC4(CCC4c4ccccc4)C(=O)N3c3ccccc3)cc2)CC1` (stereo not drawn) returned a melting point of 166 to 168 °C.

In turn, `CC1NC(c2ccc(Cl)cc2)=NO1` (stereo not drawn) displayed a melting point of 110 to 112 °C.

Consider `CC(=O)OC(C)OC(=O)N1c2ccccc2Sc2cc(O)c3ccccc3c21` (stereo not drawn), for which the melting point was in the range of 102 to 112 °C.

On to `COc1ccc(N(CCCC(=O)O)C(=O)C(C)N(C(=O)c2ccco2)c2ccc(OC)cc2)cc1` (stereo not drawn), for which the melting point was in the range of 204 to 206 °C.

Consider `O=[N+]([O-])c1ccc(O)c(CSCC(O)CO)c1` (stereo not drawn), for which the melting point is 130 °C.

`Cc1ccnc(SCc2nccc(SCCCSc3ccc4ncc([N+](=O)[O-])n4n3)c2C)n1`: the melting point fell in the range of 136 to 138 °C.

Regarding `C[C@@]1(c2ccccc2)OC(c2ccccc2)=NC[C@H]1O` (racemic), the melting point came to 130 °C.

On to `COc1ccc(N2CCN(CCC3OCCc4cc(C(N)=O)ccc43)CC2)cc1` (stereo not drawn), for which the melting point lay within 180 to 182 °C.

Regarding `Cn1cc(CCN2C(=O)c3ccccc3C2=O)c2cc(CNC=O)ccc21`, the melting point lay within 189 to 191 °C.

`CC(C)(C)OC(=O)N[C@@H](Cc1ccccc1)C(=O)C=[N+]=[N-]` yielded a melting point of 87 to 90 °C.

`CC(C)(O)c1nnn(Cc2cccc(C(F)(F)F)c2)c1I` displayed a melting point of 77 to 80 °C.

`O=C1CC([N+](=O)[O-])([N+](=O)[O-])CO1` registered a melting point of 100 to 102 °C.

The molecule `CCC(NC(Cc1cccnc1C)=NC#N)c1ccccc1` (stereo not drawn) registered a melting point of 52 to 54 °C.

On to `CCCCN1CCC(n2c(=O)[nH]c3ccccc32)CC1`, for which the melting point fell in the range of 207 to 209 °C.

Molecule `Cc1c(C(=O)Nc2ccc(N3CCC(N4CCOCC4)CC3)c(C#N)c2)cnn1-c1ccc(Br)cc1` displayed a melting point of 250 to 252 °C.

Take `CC(C)(C)OC(=O)NC(CNC(=O)Nc1ccccc1)C(=O)OCc1ccccc1` (stereo not drawn): the melting point was in the range of 48 to 50 °C.

As for `CCC1(C(=O)C(=O)NC(C)(C)C)CC1`, the melting point was in the range of 37.5 to 39 °C.

In turn, `Nc1ccc(Oc2cccc(Oc3ccc(N)cc3)n2)cc1` came in with a melting point of 152 to 154 °C.

On to `C=Cn1c2ccccc2c2cc(Br)ccc21`, for which the melting point was in the range of 74 to 74.5 °C.

Consider `O=c1[nH]c(-c2ccc(CCN3CCN(c4cccc5ccccc45)CC3)cc2)cs1`, for which the melting point fell in the range of 307 to 309 °C.

Consider `CCOC(=O)C(CCc1ccccc1)CC1(C(=O)O)CCCC1` (stereo not drawn), for which the melting point lay within 68 to 69 °C.

The molecule `CCCc1c(C(=O)CO)c2ccc(C(N)=O)cc2n1Cc1ccccc1Cl` showed a melting point of 231 to 234 °C.

`CC(Oc1ccc(Oc2cnc3cc(Cl)ccc3n2)cc1)C(=O)Nc1ccc(C(F)(F)F)cc1` (stereo not drawn) displayed a melting point of 176 to 178 °C.

On to `ON=C1c2ccccc2CSc2ccccc21`, for which the melting point was in the range of 241 to 243 °C.

As for `Cc1c(C)c2c(c(C)c1Br)C(=O)C(C)(C)O2`, the melting point was in the range of 92 to 93 °C.

The molecule `CN(c1nccc(-n2nnc3ccccc32)n1)[C@H]1CC[C@H](N(C)S(C)(=O)=O)CC1` displayed a melting point of 204 °C.

In turn, `CC(C)CN1C(=O)[C@@H](CC(N)=O)O[C@H](c2ccccc2Cl)c2cc(Cl)ccc21` (relative stereo) had a melting point of 271 to 272 °C.

In turn, `Cc1cccc(-c2ccc(OS(=O)(=O)C(F)(F)F)cc2C=O)c1` displayed a melting point of 60 to 62 °C.

In turn, `COc1cc(OCc2nc(-c3ccco3)oc2C)ccc1C=O` had a melting point of 111 to 112 °C.

With `CN1C2CCC1CC(=NO)C2`, the melting point lay within 140 to 142 °C.

`CS(=O)(=O)c1ccc(C(=O)c2ccc(Cl)cc2)cc1` showed a melting point of 176 °C.

`Clc1cc(Cl)c2c(c1)CCC(N1CCCC1)=C2`: the melting point was in the range of 84.5 to 85.5 °C.

With `COc1cc2ncc(C#N)c(Nc3ccc(Oc4ccccc4)cc3)c2cc1OC`, the melting point lay in the range of 239 to 241 °C.

Take `Cc1nc(-c2nc(C)c(-c3ccnc(Nc4cc(Cl)c(N5CCOCC5)c(Cl)c4)n3)s2)cs1`: the melting point is > 300 °C.

`CCOc1ccc(Oc2ccc(CNC(=O)c3sc(C)nc3C)cc2)cc1` gave a melting point of 99 to 101 °C.

Consider `CN(C)C(=O)c1ccc(-c2ccc(N)cc2)cc1`, for which the melting point fell in the range of 184 to 186 °C.

In turn, `CCNS(=O)(=O)c1ccc(C2=C(c3cccc(F)c3)C(=O)C(C)(C)O2)cc1` yielded a melting point of 113 to 114 °C.

Take `O=C(NC1CCCCC1)c1c(O)c2cccnc2n(Cc2ccccc2)c1=O`: the melting point worked out at 143 °C.

For `CCOC(=O)COc1ccc(Br)cc1C(C)=O`, the melting point is 66 to 68 °C.

As for `Nc1ncc2c(n1)N(c1ccccc1)C(=O)N(c1c(Cl)cccc1Cl)C2`, the melting point is > 300 °C.

Molecule `Cc1ccc2c(c1)NC(=O)c1ccccc1O2` registered a melting point of 231 to 232 °C.

Molecule `COc1ccc(F)c([C@@H]2C[C@H]2CNC(=O)C(C)C)c1` (relative stereo) displayed a melting point of 56 to 57 °C.
